From patent US20160113960A1, “TOPICAL PREPARATIONS COMPRISING HYALURONIC ACID, VERBASCOSIDE AND GLYCEROPHOSPHOINOSITOL” (ALTERGON S.A., priority 2013, published 2016)

Key:
[1] = titre of components in the muco-adhesive solution on storage at room temperature; type: physicochemical
[2] = spectrophotometric test with 2,2-diphenyl-1-picrylhydrazyl (DPPH), radical scavenging activity; type: biochemical; conditions: for radical scavenging activity (in words): DPPH test, summary of Tables 1 and 2
Method: Evidence of the radical scavenging activity of the main ingredients of the formulations prepared, VB, HANa, GPI, were obtained with in vitro tests.
The anti-radical activity of VB alone and in combination with HANa and GPI was analyzed by spectrophotometric test with 2,2-diphenyl-1-picrylhydrazyl (DPPH). The samples were prepared respecting the proportions provided in the formulation.

[3] = target: T1, iNOS (inducible nitric oxide synthase) (Homo sapiens, UniProt P35228); conditions: THP-1 cells stimulated with LPS and IFN-γ; cited from earlier work
T1 construct: human THP-1 leukemia cells stimulated with pro-inflammatory stimuli (e.g. LPS and IFN-γ) in which the activity of iNOS is overexpressed; endogenous in cells; host or cells: human THP-1 leukemia cells stimulated with LPS and IFN-γ

[4] = storage stability of verbascoside with and without water; type: physicochemical
Source text: Therefore, in a more preferred embodiment, the ternary association of the invention is formulated in dry form or with liquid or semi-solid anhydrous ingredients. If the final formulation requires one or more aqueous ingredients, verbascoside is preferably packaged separately in conditions of absence of water (or in the dry state or with semi-solid/liquid anhydrous ingredients) and stored in that form; a preferred semi-solid form is represented by glycerogel, or gelled semi-solid and non hydrated forms with a glycerin base; upon use, verbascoside is combined with the aqueous components, obtaining the final aqueous formulation, ready for administration. The separate packaging of the above ingredients is achievable by generally known means, e.g. double chamber bags, twin-bag double chamber dispensers, etc.

periodontitis model = conditions: rats, cited from earlier work
[5] = tested on: inflammatory chemokines such as GM-GCSF, IL-8, IP-10 and MCP-1; conditions: human keratinocytes stimulated with TNFα or IFN-γ; cited from earlier work
[6] = muco-adhesive solution of Example 6
[7] = muco-adhesive solution of Example 7, solution pH 4.4, viscosity 145 mPas s
[8] = muco-adhesive solution of Example 8, solution pH 4.4, viscosity 60 mPas s
[9] = muco-adhesive solution of Example 9, iota carrageenan solution, pH 4.3

Compound	% titre at 30 days at room temperature [1, 6] [%]	Initial % titre [1, 6] [%]	% titre at 10 days at room temperature [1, 7] [%]	Initial % titre [1, 7] [%]	% titre at 10 days at room temperature [1, 8] [%]	Initial % titre [1, 8] [%]	% titre at 30 days at room temperature [1, 9] [%]	Initial % titre [1, 9] [%]	radical scavenging activity (in words) [2]	other results
O=P(O)(OC[C@H](O)CO)OC1[C@H](O)[C@H](O)C(O)[C@H](O)[C@H]1O (stereo partly drawn) [GPI, Inositol glycerophosphate]	98.2	99.5	102.88	99.63	102.24	98.17	100.8	100.6	essentially showed no activity	Radical scavenging activity (%) ([2]; concentration 78 mg/L): 1%
C[C@@H]1O[C@@H](O[C@@H]2[C@@H](O)[C@H](OCCc3ccc(O)c(O)c3)O[C@H](CO)[C@H]2OC(=O)/C=C/c2ccc(O)c(O)c2)[C@H](O)[C@H](O)[C@H]1O [VB, Verbascoside]	92.5	99.6	98.71	101.68	98.55	102.2	92.9	101.7	clear	expression and activity of iNOS and superoxide radicals [3]: significant decrease; stability ([4]; in an aqueous medium): particularly labile; stability upon storage ([4]; stored in the absence of water): particularly stable; time for which a high titre is maintained ([1]; after extemporaneous incorporation with the aqueous component, room temperature): at least 30 days; parameters of inflammation (periodontitis model; oral administration 2 mg/kg/day for 8 days): significantly reduces; anti-inflammatory effect (periodontitis model; periodontitis model): marked anti-inflammatory effect; inflammatory chemokines such as GM-GCSF, IL-8, IP-10 and MCP-1 [5]: reduces in a dose-dependent manner; Radical scavenging activity (%) ([2]; VB concentration 3.3 μM (2.1 mg/L)): 15%; Radical scavenging activity (%) ([2]; VB concentration 6.6 μM (4.1 mg/L)): 24%; Radical scavenging activity (%) ([2]; VB concentration 13.2 μM (8.3 mg/L)): 42%; Radical scavenging activity (%) ([2]; VB concentration 26.5 μM (16.6 mg/L)): 76%; Radical scavenging activity (%) ([2]; VB concentration 53 μM (33.1 mg/L)): 95%; Radical scavenging activity (%) ([2]; concentration 15.6 mg/L): 74%
Hyaluronic acid sodium salt [HANa]	100.7	101.3	96.26	99.32	96.26	98.48	114.9	114.6	essentially showed no activity	Radical scavenging activity (%) ([2]; concentration 62.4 mg/L): 1%
